Laboratory results reported in patent US8198330B2, “Therapeutic or prophylactic agent for diabetes, obesity, dyslipidemia or metabolic syndrome comprising benzylamine derivative or pharmaceutically acceptable acid addition salt thereof” (Toray Industries, Inc., priority 2008, dated 2012).

Legend:
Assay type in all cases: in vivo, mouse
KK/Ay mice = assay: Efficacy in Type 2 diabetes-model mice (KK/Ay mice)
Description: KK/Ay male mice of 5 weeks of age (CLEA Japan, Inc.) were purchased; a feeding stuff for growth CMF (Oriental Yeast) was provided since the day of arrival; and mice after growth for 3 weeks or longer were used. The compound of Example 1 was diluted to 2 mg/mL, as it is dissolved in physiological saline, and the solution was administered subcutaneously in an amount of 5 mL/kg, by using a disposable syringe (Terumo) and a 26G injection needle (Terumo). Physiological saline was administered to the mice in the vehicle group. The solution was administered once a day from the day of first administration (day 0) to day 13, and the tail vein was cut open with a knife (disposable scalpel, FEATHER) and the blood sugar was determined with a simplified blood sugar analyzer (MediSense Precision Xceed, Abotto Japan). Statistical treatment of the individual data obtained was carried out by a two-group test (unpaired t-test).

DIO mice [1] = assay: Insulin tolerance test (ITT) in DIO mice; conditions: day 27, insulin 0.3 unit/kg i.p., FIG. 1
Description: (§1) The blood was collected (approximately 70 μL) from the same site by using a heparin-treated capillary (Hematokrit Kapilaren, 75 μL, […] LABORGERATE) and the collected blood was centrifuged (12,000 rpm, 7 min, 4° C.) in a hematocrit centrifuge (KUBOTA3100, Kubota Corp.) and the plasma was stored, as it is frozen in an Eppendorf tube, until it is used for measurement of triglyceride. The triglyceride measurement was carried out by using Triglyceride E-Test Wako (Wako Pure Chemical Industries). Four μL of the sample was added to 250 μL of the coloring liquid, after reaction at 37° C. for 1 hour, and the absorbance (595 nm) of the mixture was determined by using a microplate reader (Bio-Rad, Model 680). Separately, insulin tolerance test (ITT) was performed on day 27.
The mouse was left non-feeded in a fasting cage after drug administration on day 26. In the morning of the day of ITT (day 27), the fasting blood sugar was determined by a method identical with that used for blood sugar measurement on day 26. The blood sugar was measured once again in the afternoon of the same day; an insulin solution was administered intraperitoneally (0.3 unit/5 mL/kg) immediately after then; and the blood sugar was measured 30, 60, 120 and 180 minutes after insulin administration since then. […]
The insulin level was measured by using an insulin measurement kit (Lebis Insulin Mouse U, Shibayagi). […]

DIO mice [2] = assay: Efficacy in diabetes/obesity-model mice (DIO mice): blood sugar, body weight, fat, triglyceride; conditions: for Weight of the fat around the mouse testicles / Blood sugar / Increase in body weight / Triglyceride: DIO mouse; for Weight of the fat around the mouse testicles: after ITT (day 27); for Blood sugar / Increase in body weight / Triglyceride: day 26; for Triglyceride: plasma
Description: C57BL/6J mice grown on a solid feeding stuff containing 60% fat (D12492, Research Diets) since 4 weeks of age, (male, Charles River Laboratories, Japan, 13 weeks of age) were purchased and mice of 16 weeks of age grown on D12492 since the day of arrival were used. C57BL/6J mice of 16 weeks of age grown on normal food since the day of arrival were used in the normal group. The compound of Example 1 was diluted to 2 mg/mL or 0.6 mg/mL, as it is dissolved in physiological saline, and the solution was administered subcutaneously in an amount of 5 mL/kg, by using a disposable syringe (Terumo) and a 26G injection needle (Terumo). Physiological saline was administered in the vehicle group. The solution was administered once a day from the day of first administration (day 0) to day 26. The body weight was determined on day 26; the tail vein was cut open with a knife (disposable scalpel, FEATHER); and the blood sugar was determined with a simplified blood sugar analyzer (MediSense Precision Xceed, Abotto Japan).
as §1
The insulin level was measured by using an insulin measurement kit (Lebis Insulin Mouse U, Shibayagi). Finally, HOMA-IR was also calculated from the values of fasting blood sugar and fasting insulin. The weight of the fat around the mouse testicles was also determined after measurement of ITT. Statistical treatment of the individual data obtained was carried out by a two-group test (unpaired t-test) or a multiplex comparison test (parametric Williams test).

COc1cc(CN[C@@H](C)[C@H](O)c2ccc(O)c(NS(C)(=O)=O)c2)cc(OC)c1 [Example 1, N-(5-((1R,2S)-2-(3,5-Dimethoxybenzylamino)-1-hydroxypropyl)-2-hydroxyphenyl)methanesulfonamide]
blood sugar versus solvent group (KK/Ay mice): lowered the blood sugar statistically significantly
Blood sugar (KK/Ay mice; 10 mg/kg s.c. once a day, day 0 to day 13): 336 ± 33 mg/dL
blood sugar after insulin administration (ITT) versus vehicle group (DIO mice [1]): declined statistically significantly
blood sugar-reducing effect (DIO mice [2]; DIO mice): significant blood sugar-reducing effect
increase in body weight versus vehicle group (DIO mice [2]; DIO mice): Significant suppression of increase in body weight
plasma triglyceride (TG) versus vehicle group (DIO mice [2]; DIO mice): declined statistically significantly
weight of the fat around the mouse testicles versus vehicle group (DIO mice [2]; DIO mice): declined significantly
Weight of the fat around the mouse testicles (DIO mice [2]; 3 mg/kg s.c. once a day): 2.6 ± 0.1 g
Blood sugar (DIO mice [2]; 3 mg/kg s.c. once a day): 177 ± 9 mg/dL
Increase in body weight (DIO mice [2]; 3 mg/kg s.c. once a day): 3.5 ± 0.6 g
Weight of the fat around the mouse testicles (DIO mice [2]; 10 mg/kg s.c. once a day): 2.3 ± 0.1 g
Blood sugar (DIO mice [2]; 10 mg/kg s.c. once a day): 168 ± 8 mg/dL
Increase in body weight (DIO mice [2]; 10 mg/kg s.c. once a day): 2.1 ± 0.5 g
Triglyceride (DIO mice [2]; 3 mg/kg s.c. once a day): 162 ± 14 mg/dL
Triglyceride (DIO mice [2]; 10 mg/kg s.c. once a day): 129 ± 9 mg/dL
